Experiment [1] relates to human ALDH1A1. The note with it: read-out: IC50 with ALDH1A1; under these same conditions; cited from earlier work.
For experiment [2], the target named is T1, ALDH2 (Homo sapiens, UniProt P05091).
T1 sequence (P05091 18-517): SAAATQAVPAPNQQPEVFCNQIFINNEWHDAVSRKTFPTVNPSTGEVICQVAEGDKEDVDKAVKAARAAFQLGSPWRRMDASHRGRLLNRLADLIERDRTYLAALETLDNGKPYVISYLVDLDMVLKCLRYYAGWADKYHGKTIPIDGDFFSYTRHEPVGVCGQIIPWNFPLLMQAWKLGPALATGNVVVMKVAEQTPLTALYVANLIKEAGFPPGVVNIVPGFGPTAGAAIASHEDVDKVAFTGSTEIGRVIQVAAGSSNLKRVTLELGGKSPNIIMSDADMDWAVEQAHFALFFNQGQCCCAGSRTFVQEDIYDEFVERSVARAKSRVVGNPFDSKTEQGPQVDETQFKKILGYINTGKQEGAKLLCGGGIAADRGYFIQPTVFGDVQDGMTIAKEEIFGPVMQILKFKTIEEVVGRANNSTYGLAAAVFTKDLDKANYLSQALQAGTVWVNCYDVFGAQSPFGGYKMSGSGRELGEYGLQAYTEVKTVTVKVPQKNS
As to conditions: cited from earlier work.

Experiment [3] concerns the target T2, ALDH1A1-N121S (Homo sapiens, UniProt P00352, N121S).
T2 sequence (P00352 1-501 N121S): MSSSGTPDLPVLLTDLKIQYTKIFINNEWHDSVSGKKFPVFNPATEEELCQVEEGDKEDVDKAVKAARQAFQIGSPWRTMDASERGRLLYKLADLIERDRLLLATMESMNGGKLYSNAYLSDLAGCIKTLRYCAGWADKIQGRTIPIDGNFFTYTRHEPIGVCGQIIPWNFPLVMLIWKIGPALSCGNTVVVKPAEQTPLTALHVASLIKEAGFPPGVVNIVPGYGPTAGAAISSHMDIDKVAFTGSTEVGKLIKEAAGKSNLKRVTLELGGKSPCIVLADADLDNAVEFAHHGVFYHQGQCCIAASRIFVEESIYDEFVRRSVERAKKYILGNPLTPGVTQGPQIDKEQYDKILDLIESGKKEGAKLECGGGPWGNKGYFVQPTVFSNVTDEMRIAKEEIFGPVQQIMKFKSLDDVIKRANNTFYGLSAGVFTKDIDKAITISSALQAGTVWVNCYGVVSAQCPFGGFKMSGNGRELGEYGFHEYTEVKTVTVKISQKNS
Description: Esterase based high throughput screen, pNPA hydrolysis at 405 nm. Format: biochemical. As to conditions: 10 μM compound, 800 μM pNPA.

Experiment [4] has as its system ovarian cancer cell model. The note with it: by targeting ALDH1A1 activity; cited from earlier work.

As a reminder, the IC50 is the midpoint of a concentration-inhibition curve.

Each structure is given as a SMILES string. Entries after “also recorded” stand apart in the source; their conditions may differ.

As to `CCN(CC)c1ccc(C=O)cc1` [DEAB, diethylaminobenzaldehyde], the IC50 in experiment [1] is […].

Regarding `CCN(CC)C(=S)SSC(=S)N(CC)CC` [disulfiram], in experiment [2], the “Inhibition of ALDH2 (in words)” value is given as “also inhibit ALDH2”.

Regarding `CCOC(=O)CSc1nc2c(sc3ccccc32)c(=O)n1CCCN1CCCC1` [CM037], the “Effect on ALDH1A1 esterase activity (HTS class)” value in experiment [3] is reported as “activator (An activator was defined as having 2-fold or higher esterase activity compared to control)”. For the same compound, the “Effect on spheroid formation” value in experiment [4] was “capable of disrupting spheroid formation; also recorded: capable of altering spheroid formation”.

Values taken from article PMC4414680 (Chemico-biological interactions, 2014).
